From US7528226B2, “TGFβ1-inhibitor peptides” (Rojecto de Biomedicina Cima S.L., priority 1998, dated 2009)
No end group written: not given here.

What was measured:
[1] = tested on: type I, II and III cell receptors of TGFβ1; test: Affinity labelling: inhibition of binding of 125I-TGFβ1 to its cell receptors on MV-1-Lu cells; design: species or system human
Description: The MV-1-Lu cells were removed from the culture flasks incubating them at 37° C. for 10 minutes, with 10 ml of solution 1 (128 mM NaCl, 5 mM KCl, 25 mM 4-(2-hydroxyethyl)-1-piperazine ethanesulphonate at pH 7.5, 5 mM glucose and 1 mM EDTA). The cells thus removed were resuspended in solution 2 (128 Mm NaCl, 5 mM KCl, 50 mM 4-(2-hydroxyethyl)-1-piperazine ethanesulphonate at pH 7.5, 1.2 mM CaCl2, 1.2 mM MgSO4 and 5 mg/ml BSA) and were collected by centrifugation at 1000×g for 5 minutes. After centrifugation the cells were resuspended in solution 2 at a concentration of 10^6 cells/ml.
From this cell suspension, 0.5 ml aliquots were made in 24-well plates (Greiner GmbH, Frickenhausen, Germany), the peptides were added, in 50 μl of a 0.8 mg/ml solution, then this was incubated for 2 hours at 4° C. with stirring. Next, ^125I-TGFβ1 (2 μCi) was added to a final concentration of 277.2 pM (^125I-TGFβ1 human recombinant 800-2200 Ci/mmol, Amersham Life Science, Buckinghamshire, UK) and this was incubated for a further two hours at 4° C. with stirring.
After incubation, the cells were transferred to a centrifuge tube and were centrifuged cold at 12,000×g for 1 minute. […]

[2] = tested on: experimental cirrhosis with CCl4; test: Model of experimental cirrhosis induced with CCl4 in Wistar rats (collagen / fibrosis); assay type: in vivo, rat
Description: Male white rats (albino Wistar strain) from simultaneous litters (5 weeks±1.5 weeks) were used, in order to obtain a group that was homogeneous in age and initial weight. Throughout the experiments, the animals were kept in conditions of constant temperature (22° C.) with a 12-hour cycle of light and darkness. They had free access to water and food.
Hepatic cirrhosis (HC) was induced by inhalation of carbon tetrachloride for 11 weeks, twice per week (López Novoa J M et al. (1976) Patologia IX:223-240; Camps J. et al. (1987) Gastroenterology 93:498-505). Exposure to CCl4 was effected by bubbling compressed air, at a flow rate of 3 liters/min, through a gas wash-bottle. […] CCl4 was not administered during the fifth week, starting again at the sixth week with an exposure of 5 minutes. This exposure time was maintained until week 11. 400 mg/l of phenobarbital (Luminal®, Bayer, Leverkusen, Germany) was added to the drinking water, from one week before starting exposure to CCl4 and until the end of the experimental period. Before starting the treatment, one week was left, in which they were not administered CCl4. During treatment they were administered a weekly dose of CCl4, as recorded (FIG. 2).
The animals were divided into 4 groups before beginning the process of induction of hepatic cirrhosis. • Healthy controls (Co): Animals that were not subjected to the fibrosis process. • Treated healthy controls (Co+P144): Animals that were not subjected to the fibrosis process and that were administered the peptide P144 during the last 3 weeks (coinciding in time with the treatment of the group of rats Tto2). • Cirrhotic controls 1 (Ci1): Animals subjected to the process of induction of cirrhosis by inhalation of CCl4 twice per week. These animals were separated into 2 groups on reaching the fifth week: • Cirrhotic controls 1 (Ci1): Animals that continued to be subjected to the process of induction of fibrosis up to week 11, without being administered the peptide P144. They were administered saline serum on alternate days, throughout the induction process (weeks 5 to 11). • Treated cirrhotics 1 (Tto1): Animals that were administered the peptide P144 derived from the sequence of the type III receptor, on alternate days, during the process of induction of fibrosis, from week 5 to week 11. • Cirrhotic controls 2 (Ci2): Animals that continued to be subjected to the process of induction of fibrosis without receiving the peptide P144 or saline serum. This group was subdivided into another two on reaching week 11. • Cirrhotic controls 2 (Ci2): Cirrhotic animals that were not subjected to any type of treatment, kept as controls. […]

TSLDASIIWAMMQN [P144, ThrSerLeuAspAlaSerIleIleTrpAlaMetMetGlnAsn]
inhibition of the binding of 125I-TGFβ1 to the cell receptors ([1]; preincubation with peptide at 10^6 times the molar concentration of 125I-TGFβ1): inhibition of the binding
concentration at which the peptide lost its activity ([1]; titration of the peptide, affinity labelling): 2×10^5 times the molar concentration of ^125I-TGFβ1
ratio of collagen to total protein, treated (Tto1) vs cirrhotic controls (Ci1) ([2]; protocol 1: 70 μg/animal on alternate days during cirrhosis induction, Fast Green/Direct Red, spectrophotometer): significant differences are observed (P<0.05)
area of fibrosis, treated (Tto1) vs cirrhotic controls (Ci1) ([2]; protocol 1: 70 μg/animal on alternate days during cirrhosis induction, image analysis, Sirius Red): also significant (P<0.001)
ratio of collagen to total protein, treated (Tto2) vs cirrhotic controls (Ci2) ([2]; protocol 2: 70 μg/animal on alternate days for 3 weeks once cirrhosis was established): not significant
area of fibrosis, treated (Tto2) vs cirrhotic controls (Ci2) ([2]; protocol 2: 70 μg/animal on alternate days for 3 weeks once cirrhosis was established, image analysis): not significant
